Data reported in US6737383B1, “Herbicidal oxadiazolidines” (priority 1999, dated 2004).

Columns and labels:
[1] = tested on: pigweed; assay: Test B pre/postemergence pigweed; format: in vivo, Amaranthus retroflexus; conditions: Preemergence, scale 0 to 10, 0 is no effect, 10 is complete control
How it was run: (§1)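 Herbicidal effect was estimated by eye on a ten-point control scale after plants spent twelve to sixteen days in a greenhouse following soil or foliar treatment. Foliar sprays targeted plants at one to four leaves; all doses were formulated in a non-phytotoxic solvent with surfactant.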

[2] = tested on: rape; assay: Test B pre/postemergence rape; format: in vivo, Brassica napus
How it was run: as §1

[3] = tested on: soybean; assay: Test B pre/postemergence soybean; format: in vivo, Glycine max
How it was run: as §1

[4] = tested on: sugar beet; assay: Test B pre/postemergence sugar beet; format: in vivo, Beta vulgaris
How it was run: as §1

[5] = tested on: velvetleaf; assay: Test B pre/postemergence velvetleaf; format: in vivo, Abutilon theophrasti
How it was run: as §1

[6] = tested on: wheat; assay: Test B pre/postemergence wheat; format: in vivo, Triticum aestivum
How it was run: as §1

[7] = tested on: wild oat; assay: Test B pre/postemergence wild oat; format: in vivo, Avena fatua
How it was run: as §1

[8] = tested on: purple nutsedge; assay: Test B pre/postemergence purple nutsedge; format: in vivo, Cyperus rotundus
How it was run: as §1

[9] = tested on: rice; assay: Test B flood test rice; format: in vivo, Oryza sativa
How it was run: (§2)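 Plants were grown to the 2-leaf stage before treatment with test chemical, then held in a greenhouse for twelve to sixteen days. Injury was visually rated against untreated controls on a 0–10 scale, where 0 is no effect and 10 is complete control.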

[10] = tested on: smallflower flatsedge; assay: Test B flood test smallflower flatsedge; format: in vivo, Cyperus difformis
How it was run: as §2

[11] = tested on: duck salad; assay: Test B flood test duck salad; format: in vivo, Heteranthera limosa
How it was run: as §2

[12] = tested on: bamyardgrass; assay: Test B flood test barnyardgrass; format: in vivo, Echinochloa crus-galli
How it was run: as §2

[13] = Postemergence, Rate 250 g/ha, scale 0 to 10, 0 is no effect, 10 is complete control
[14] = Postemergence, Rate 500 g/ha, scale of 0 to 10 where 0 is no effect and 10 is complete control
[15] = Preemergence, Rate 62 g/ha, scale 0 to 10 (0 no effect, 10 complete control)
[16] = Preemergence, Rate 125 g/ha, scale of 0 to 10 where 0 is no effect and 10 is complete control
[17] = Preemergence, Rate 250 g/ha, scale 0 to 10, 0 is no effect, 10 is complete control
[18] = Preemergence, Rate 500 g/ha, scale 0 to 10, 0 is no effect, 10 is complete control
[19] = Rate 62 g/ha, flood test species, Pre-emergence, visual evaluation after twelve to sixteen days
[20] = Rate 125 g/ha, under heading Pre-emergence, flood test species, visual evaluation after twelve to sixteen days
[21] = Rate 250 g/ha, Pre-emergence, flood-test species, scale 0 to 10, 0 is no effect, 10 is complete control
[22] = Rate 500 g/ha, Pre-emergence, flood test species, scale 0 to 10 (0 no effect, 10 complete control)

Compound: CC(C)N(C(=O)n1oc(=O)n(C(C)CCl)c1=O)c1ccccc1 (stereo not shown) [Compound 411]
- Redroot pigweed plant response rating ([1]; Rate 250 g/ha): 10
- Redroot pigweed plant response rating ([1]; Rate 500 g/ha): 10
- Plant response rating, Rape [2, 13]: 7
- Rape plant response rating [2, 14]: 8
- Plant response rating, Rape [2, 15]: 2
- Plant response rating, Rape [2, 16]: 8
- Rape plant response rating [2, 17]: 9
- Rape plant response rating [2, 18]: 10
- Plant response rating, Soybean [3, 13]: 5
- Soybean plant response rating [3, 14]: 7
- Plant response rating, Soybean [3, 15]: 0
- Plant response rating, Soybean [3, 16]: 0
- Soybean plant response rating [3, 17]: 0
- Soybean plant response rating [3, 18]: 1
- Plant response rating, Sugarbeets [4, 13]: 4
- Sugarbeets plant response rating [4, 14]: 7
- Plant response rating, Sugarbeets [4, 15]: 5
- Plant response rating, Sugarbeets [4, 16]: 8
- Sugarbeets plant response rating [4, 17]: 8
- Sugarbeets plant response rating [4, 18]: 8
- Plant response rating, Velvetleaf [5, 13]: 4
- Velvetleaf plant response rating [5, 14]: 6
- Plant response rating, Velvetleaf [5, 15]: 2
- Plant response rating, Velvetleaf [5, 16]: 5
- Velvetleaf plant response rating [5, 17]: 6
- Velvetleaf plant response rating [5, 18]: 8
- Wheat plant response rating [6, 14]: 8
- Plant response rating, Wheat [6, 15]: 0
- Plant response rating, Wheat [6, 16]: 4
- Wheat plant response rating [6, 17]: 7
- Wheat plant response rating [6, 18]: 10
- Wild oats plant response rating [7, 14]: 9
- Plant response rating, Wild oats [7, 15]: 0
- Plant response rating, Wild oats [7, 16]: 5
- Wild oats plant response rating [7, 17]: 8
- Wild oats plant response rating [7, 18]: 10
- Plant response rating, Nutsedge [8, 13]: 0
- Nutsedge plant response rating [8, 14]: 0
- Plant response rating, Nutsedge [8, 15]: 0
- Plant response rating, Nutsedge [8, 16]: 0
- Nutsedge plant response rating [8, 17]: 0
- Nutsedge plant response rating [8, 18]: 2
- Plant response rating, Rice (0 to 10 scale, 0 is no effect, 10 is complete control) [9, 19]: 0
- Rice plant response rating (0 to 10 scale, 0 is no effect, 10 is complete control) [9, 20]: 0
- Rice plant response rating [9, 21]: 0
- Rice plant response rating [9, 22]: 0
- Plant response rating, S. Flatsedge (0 to 10 scale, 0 is no effect, 10 is complete control) [10, 19]: 0
- S. Flatsedge plant response rating (0 to 10 scale, 0 is no effect, 10 is complete control) [10, 20]: 0
- S. Flatsedge plant response rating [10, 21]: 9
- S. Flatsedge plant response rating [10, 22]: 9
- Plant response rating, Ducksalad (0 to 10 scale, 0 is no effect, 10 is complete control) [11, 19]: 0
- Ducksalad plant response rating (0 to 10 scale, 0 is no effect, 10 is complete control) [11, 20]: 0
- Ducksalad plant response rating [11, 21]: 2
- Ducksalad plant response rating [11, 22]: 2
- Plant response rating, Barnyardgrass (0 to 10 scale, 0 is no effect, 10 is complete control) [12, 19]: 0
- Barnyardgrass plant response rating (0 to 10 scale, 0 is no effect, 10 is complete control) [12, 20]: 8
- Barnyardgrass plant response rating [12, 21]: 9
- Barnyardgrass plant response rating [12, 22]: 9
